Results: patent publication US4113766A, “Oxaprostaglandins” (Pfizer Inc., priority 1975, dated 1978)

What was measured:
[1] = test system: estrogenized rat uterus; assay: spasmogenic effect on estrogenized rat uterus in vitro; assay type: tissue-based; settings: in words; rat uterus vs guinea pig ileum, Table I
Description: (§1) These tests include, among others, a test for effect on isolated smooth muscle from guinea pig ileum and rat uterus, a test for effect on histamine induced bronchospasm in guinea pig, a test for effects on dog blood pressure, a test for induction of diarrhea in mice, and a test for the induction of abortion in early pregnant rats.
^(c) Threshold dose for spasmogenic effect on estrogenized rat uterus

[2] = test system: early pregnant rat; assay: induction of abortion in early pregnant rats; assay type: in vivo
Description: as §1
On the basis of the difference seen in the rat uterus and guinea pig ileum tests with 19-oxaprostaglandin E2, one would expect to have a reduction of the unpleasant gastrointestinal side effects which were encountered when natural PGE2 was employed as an abortion inducer (Lancet, 536, 1971).

[3] = test system: histamine induced bronchospasm; assay: protection by aerosol against histamine induced bronchospasm in guinea pig; assay type: in vivo; settings: in words, from Table I
Experimental: as §1
^(b) Per cent protection by 100 μg/ml aerosol dose for histamine
induced bronchospasm in the guinea pig.

Row | SMILES | tissue selectivity [1] | effectiveness relative to natural PGE2 in inducing abortion [2] | bronchodilator selectivity versus natural PGE2 [3]
1 | COCCC[C@H](O)/C=C/[C@H]1[C@H](O)CC(=O)[C@@H]1C/C=C\CCCC(=O)O [19-oxa PGE2, 9-oxo-11α,15α-dihydroxy-19-oxa-cis-5-trans-13-prostadienoic acid] | advantage of tissue selectivity | as effective as natural PGE2 | 
2 | CCOCCC[C@H](O)/C=C/[C@H]1[C@H](O)CC(=O)[C@@H]1C/C=C\CCCC(=O)O [19-oxa-ω-homo-PGE2, 9-oxo-11α,15α-dihydroxy-19-oxa-cis-5-trans-13-w-homo-prostadienoic acid] |  |  | more selective bronchodilator than natural PGE2
